Values of other authors as cited in patent US20060182790A1, “Dermal medicaments application enhancer” (priority 2005, published 2006).

- solubility in chloroform (chloroform): practically insoluble
- solubility in ethanol (ethanol): slightly soluble
- solubility in hexane (hexane): practically insoluble
- solubility in methanol (methanol): slightly soluble
- solubility in mineral oil (mineral oil): practically insoluble
- solubility in water (water): very soluble
Compound: Cl.NCC(=O)CCC(=O)O [ALA HCl, 5-amino-4-oxopentanoic acid hydrochloride]
